US12612409B2, “Pyrrolopyrimidines as CFTR potentiators” (Cystic Fibrosis Foundation, priority 2016, dated 2026)

Key:
[1] = molecular target: T1, CFTR in F508del/F508del primary CF hBE cells (Homo sapiens, UniProt P13569, DEL508-508); experiment: Ussing chamber electrophysiology assay of CFTR potentiation in F508del/F508del CF bronchial epithelial cells (27° C.); format: cell-based
T1 construct: Primary cystic fibrosis human bronchial epithelial (CF hBE) cells were expanded and cultured; endogenous in cells; host or cells: primary CF human bronchial epithelial cells, genotype F508del/F508del
T1 sequence (P13569 with tags, fused parts or gaps DEL508-508): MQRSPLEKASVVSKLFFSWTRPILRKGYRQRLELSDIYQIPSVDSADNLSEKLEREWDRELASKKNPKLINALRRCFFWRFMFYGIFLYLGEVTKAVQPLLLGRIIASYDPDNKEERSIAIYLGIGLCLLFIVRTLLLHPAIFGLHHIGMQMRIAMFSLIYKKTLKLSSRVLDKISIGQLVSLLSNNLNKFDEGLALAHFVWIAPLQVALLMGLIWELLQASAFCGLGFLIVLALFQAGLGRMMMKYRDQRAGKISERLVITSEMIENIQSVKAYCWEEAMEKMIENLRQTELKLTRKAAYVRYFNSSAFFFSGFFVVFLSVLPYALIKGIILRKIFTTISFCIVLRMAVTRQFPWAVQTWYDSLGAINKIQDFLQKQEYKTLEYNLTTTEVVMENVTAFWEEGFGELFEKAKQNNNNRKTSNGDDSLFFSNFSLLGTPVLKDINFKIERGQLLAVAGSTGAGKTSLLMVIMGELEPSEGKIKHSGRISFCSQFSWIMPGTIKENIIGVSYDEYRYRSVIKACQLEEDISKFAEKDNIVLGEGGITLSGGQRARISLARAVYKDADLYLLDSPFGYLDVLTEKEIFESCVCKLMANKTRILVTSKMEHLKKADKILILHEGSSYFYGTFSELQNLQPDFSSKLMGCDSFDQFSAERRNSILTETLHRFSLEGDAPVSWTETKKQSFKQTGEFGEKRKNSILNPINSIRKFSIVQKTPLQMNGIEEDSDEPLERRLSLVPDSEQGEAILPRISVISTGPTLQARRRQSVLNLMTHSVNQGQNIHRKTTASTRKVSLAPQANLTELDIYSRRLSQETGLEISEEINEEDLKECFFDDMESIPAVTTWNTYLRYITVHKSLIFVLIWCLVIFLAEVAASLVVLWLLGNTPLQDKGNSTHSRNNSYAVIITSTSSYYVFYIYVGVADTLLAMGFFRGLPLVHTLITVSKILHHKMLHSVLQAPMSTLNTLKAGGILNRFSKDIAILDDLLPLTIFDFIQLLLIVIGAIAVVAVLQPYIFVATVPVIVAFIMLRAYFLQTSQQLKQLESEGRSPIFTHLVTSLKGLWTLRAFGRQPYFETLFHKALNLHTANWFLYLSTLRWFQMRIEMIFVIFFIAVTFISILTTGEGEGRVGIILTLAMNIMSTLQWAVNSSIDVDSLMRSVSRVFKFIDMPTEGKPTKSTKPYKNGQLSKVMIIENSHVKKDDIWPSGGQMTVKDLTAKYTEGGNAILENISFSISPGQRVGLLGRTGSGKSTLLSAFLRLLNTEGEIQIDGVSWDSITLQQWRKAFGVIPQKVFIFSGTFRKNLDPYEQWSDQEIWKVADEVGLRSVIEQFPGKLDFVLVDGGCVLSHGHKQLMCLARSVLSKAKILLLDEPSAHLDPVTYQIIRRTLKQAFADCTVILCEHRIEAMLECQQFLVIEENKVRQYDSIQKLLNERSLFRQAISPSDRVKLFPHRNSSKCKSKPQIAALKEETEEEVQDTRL
Procedure, shortened: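 Short-circuit current was recorded under zero-voltage clamp across primary CF bronchial epithelia cultured >30 days at air/liquid interface, bathed apically and basolaterally in HEPES-buffered saline. Sequential additions: amiloride (30 uM), forskolin (10 uM), compound at 4 increasing levels, CFTRinh-172 (20 uM). Responses normalised between DMSO (0%) and maximal positive-control potentiator (100%).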

[2] = molecular target: T2, recombinant F508del V470 CFTR in Fischer rat thyroid (FRT) cells (Homo sapiens, UniProt P13569, DEL508-508); experiment: FRT ion flux assay of F508del CFTR potentiation; format: cell-based; conditions: FRT cells expressing F508del V470 CFTR, forskolin 20 uM, 27° C. pre-incubation
T2 construct: expressed in transfected cells
T2 sequence (P13569 with tags, fused parts or gaps DEL508-508): as above
Procedure, shortened: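 Potentiation read as YFP quench ~21 s after iodide buffer addition, as second/initial fluorescence ratio normalised between DMSO (0%) and reference potentiator (100%).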

Row | SMILES | EC50 [1] [nM] | EC50 [2] [nM]
1 | COc1ncncc1-c1cn(Cc2cn(-c3ccccc3F)nn2)c2nc(C)nc(N)c12 [Example 203, 7-{[1-(2-fluorophenyl)-1H-1,2,3-triazol-4-yl]methyl}-5-(4-methoxypyrimidin-5-yl)-2-methyl-7H-pyrrolo[2,3-d]pyrimidin-4-amine] | 2530 | 1610
2 | COc1nc(C(F)(F)F)ccc1-c1cn(Cc2cn(-c3ccccc3F)nn2)c2ncnc(N)c12 [Example 206, 7-{[1-(2-fluorophenyl)-1H-1,2,3-triazol-4-yl]methyl}-5-[2-methoxy-6-(trifluoromethyl)pyridin-3-yl]-7H-pyrrolo[2,3-d]pyrimidin-4-amine] | 10.8 | 22.9
3 | COc1cccnc1-c1cn(Cc2cn(-c3ccccc3F)nn2)c2ncnc(N)c12 [Example 207, 7-{[1-(2-fluorophenyl)-1H-1,2,3-triazol-4-yl]methyl}-5-(3-methoxypyridin-2-yl)-7H-pyrrolo[2,3-d]pyrimidin-4-amine] | 238 | 226
4 | Cc1cccc(-n2cc(C(C)n3cc(-c4ccc(Cl)cc4)c4c(N)ncnc43)nn2)c1 (centres unmarked) [Example 208, 5-(4-Chlorophenyl)-7-{1-[1-(3-methylphenyl)-1H-1,2,3-triazol-4-yl]ethyl}-7H-pyrrolo[2,3-d]pyrimidin-4-amine] | 55 | 404
5 | Cc1nc(N)c2c(-c3ccc(Cl)cc3)cn(C(C)c3cn(-c4ccccc4F)nn3)c2n1 (centres unmarked) [Example 209, 5-(4-Chlorophenyl)-7-{1-[1-(2-fluorophenyl)-1H-1,2,3-triazol-4-yl]ethyl}-2-methyl-7H-pyrrolo[2,3-d]pyrimidin-4-amine] | 295 | 343
6 | COc1ncccc1-c1cn(Cc2cn(-c3ccccc3F)nn2)c2ncnc(N)c12 [Example 210, 7-{[1-(2-Fluorophenyl)-1H-1,2,3-triazol-4-yl]methyl}-5-(2-methoxy-pyridin-3-yl)-7H-pyrrolo[2,3-d]pyrimidin-4-amine] | 158 | 123
7 | CCC(c1cn(-c2ccccc2F)nn1)n1cc(-c2ccc(Cl)cc2)c2c(N)ncnc21 (centres unmarked) [Example 211, 5-(4-Chlorophenyl)-7-{1-[1-(2-fluorophenyl)-1H-1,2,3-triazol-4-yl]propyl}-7H-pyrrolo[2,3-d]pyrimidin-4-amine] | 25.9 | 109
8 | CC(c1cn(-c2ccccc2F)nn1)n1cc(-c2ccc(OC3CC3)cc2)c2c(N)ncnc21 (centres unmarked) [Example 212, 5-[4-(Cyclopropyloxy)phenyl]-7-{1-[1-(2-fluorophenyl)-1H-1,2,3-triazol-4-yl]ethyl}-7H-pyrrolo[2,3-d]pyrimidin-4-amine] | 12.2 | 68.2
9 | CC(c1cn(-c2ccccc2F)nn1)n1cc(-c2ccc(OC3CC3)nc2)c2c(N)ncnc21 (centres unmarked) [Example 213, 5-[6-(Cyclopropyloxy)pyridin-3-yl]-7-{1-[1-(2-fluorophenyl)-1H-1,2,3-triazol-4-yl]ethyl}-7H-pyrrolo[2,3-d]pyrimidin-4-amine] | 23.1 | 58.6
10 | CC(c1cn(-c2ncccc2F)nn1)n1cc(-c2ccc(OC3CC3)cc2)c2c(N)ncnc21 (centres unmarked) [Example 214, 5-[4-(Cyclopropoxy)phenyl]-7-{1-[1-(3-fluoropyridin-2-yl)-1H-1,2,3-triazol-4-yl]ethyl}-7H-pyrrolo[2,3-d]pyrimidin-4-amine] | 39.6 | 90.6
11 | COc1ncccc1-c1cn(C(C)c2cn(-c3ccccc3F)nn2)c2ncnc(N)c12 (centres unmarked) [Example 215, 7-{1-[1-(2-Fluorophenyl)-1H-1,2,3-triazol-4-yl]ethyl}-5-(2-methoxypyridin-3-yl)-7H-pyrrolo [2,3-d]pyrimidin-4-amine] | 184 | 79.3
12 | CC(c1cn(-c2ccccc2F)nn1)n1cc(-c2cnc(C(F)(F)F)nc2)c2c(N)ncnc21 (centres unmarked) [Example 216, 7-{1-[1-(2-Fluorophenyl)-1H-1,2,3-triazol-4-yl]ethyl}-5-[2-(trifluoromethyl)pyrimidin-5-yl]-7H-pyrrolo[2,3-d]pyrimidin-4-amine] | 58.8 | 25.2
13 | CCC(c1cn(-c2ccccc2F)nn1)n1cc(-c2cc(F)cnc2OC)c2c(N)ncnc21 (centres unmarked) [Example 223, 7-{1-[1-(2-Fluorophenyl)-1H-1,2,3-triazol-4-yl]propyl}-5-(5-fluoro-2-methoxypyridin-3-yl)-7H-pyrrolo[2,3-d]pyrimidin-4-amine] | 7.23 | 11.1
14 | CCC(c1cn(-c2ccccc2F)nn1)n1cc(-c2cnc(C(F)(F)F)nc2)c2c(N)ncnc21 (centres unmarked) [Example 224, 7-{1-[1-(2-Fluorophenyl)-1H-1,2,3-triazol-4-yl]propyl}-5-[2-(trifluoromethyl)pyrimidin-5-yl]-7H-pyrrolo[2,3-d] pyrimidin-4-amine] | 19 | 9.04
15 | CCC(c1cn(-c2ccccc2F)nn1)n1cc(-c2cnco2)c2c(N)ncnc21 (centres unmarked) [Example 225, 7-{1-[1-(2-Fluorophenyl)-1H-1,2,3-triazol-4-yl]propyl}-5-(1,3-oxazol-5-yl)-7H-pyrrolo[2,3-d]pyrimidin-4-amine] | 93.2 | 37.3
16 | CCC(c1cn(-c2ccccc2F)nn1)n1cc(C2CC2)c2c(N)ncnc21 (centres unmarked) [Example 236, 5-cyclopropyl-7-{1-[1-(2-fluorophenyl)-1H-1,2,3-triazol-4-yl]propyl}-7H-pyrrolo[2,3-d]pyrimidin-4-amine] | 38.8 | 56
17 | CC(c1cn(-c2ccccc2F)nn1)n1cc(C2CC2)c2c(N)ncnc21 (centres unmarked) [Example 238, 5-Cyclopropyl-7-{1-[1-(2-fluorophenyl)-1H-1,2,3-triazol-4-yl]ethyl}-7H-pyrrolo[2,3-d]pyrimidin-4-amine] | 133 | 60.6
18 | CC(c1cn(-c2ccccc2F)nn1)n1cc(-c2ccc(C#N)c(F)c2)c2c(N)ncnc21 (centres unmarked) [Example 239, 4-(4-Amino-7-{1-[1-(2-fluorophenyl)-1H-1,2,3-triazol-4-yl)ethyl]-7H-pyrrolo[2,3-d]pyrimidin-5-yl}-2-fluorobenzonitrile] | 83 | 94.4
19 | CCC(c1cn(-c2cc(C(F)(F)F)ccn2)nn1)n1cc(-c2cncnc2OC)c2c(N)ncnc21 (centres unmarked) [Example 242, 5-(4-Methoxypyrimidin-5-yl)-7-(1-{1-[4-(trifluoromethyl)pyridin-2-yl]-1H-1,2,3-triazol-4-yl]propyl}-7H-pyrrolo[2,3-d]pyrimidin-4-amine] | 205 | 378
20 | COc1ncncc1-c1cn(C(c2cn(-c3ccccc3F)nn2)C2CC2)c2ncnc(N)c12 (centres unmarked) [Example 243, 7-{Cyclopropyl[1-(2-fluorophenyl)-1H-1,2,3-triazol-4-yl]methyl}-5-(4-methoxypyrimidin-5-yl)-7H-pyrrolo[2,3-d]pyrimidin-4-amine] | 95.3 | 56.2
21 | CCC(c1cn(-c2ccccc2F)nn1)n1cc(-c2cncnc2OC)c2c(N)ncnc21 (centres unmarked) [Example 244, 7-{1-[1-(2-Fluorophenyl)-1H-1,2,3-triazol-4-yl]propyl}-5-[4-methoxypyrimidin-5-yl]-7H-pyrrolo[2,3-d]pyrimidin-4-amine] | 61.6 | 34.1
22 | CC(c1cn(-c2ccccc2F)nn1)n1cc(C2CCC2)c2c(N)ncnc21 (centres unmarked) [Example 247, 5-Cyclobutyl-7-{1-[1-(2-fluorophenyl)-1H-1,2,3-triazol-4-yl]ethyl}-7H-pyrrolo[2,3-d]pyrimidin-4-amine] | 12.4 | 16.2
23 | CCC(c1cn(-c2ccccc2)nn1)n1cc(-c2cncnc2OC)c2c(N)ncnc21 (centres unmarked) [Example 248, 5-(4-Methoxypyrimidin-5-yl)-7-{1-[1-phenyl-1H-1,2,3-triazol-4-yl]propyl}-7H-pyrrolo[2,3-d]pyrimidin-4-amine] | 55.4 | 25.9
24 | COc1nc(C(F)(F)F)ncc1-c1cn(C(C)c2cn(-c3ccccc3F)nn2)c2ncnc(N)c12 (centres unmarked) [Example 249, 7-{1-[1-(2-Fluorophenyl)-1H-1,2,3-triazol-4-yl]ethyl}-5-[4-methoxy-2-(trifluoromethyl)pyrimidin-5-yl]-7H-pyrrolo[2,3-d]pyrimidin-4-amine] | 27.7 | 12.2
25 | COc1nc(C(F)(F)F)ncc1-c1cn(Cc2cn(-c3ccccc3F)nn2)c2ncnc(N)c12 [Example 252, 7-{[1-(2-Fluorophenyl)-1H-1,2,3-triazol-4-yl]methyl}-5-[4-methoxy-2-(trifluoromethyl)pyrimidin-5-yl]-7H-pyrrolo[2,3-d]pyrimidin-4-amine] | 23.9 | 27.6
26 | COc1ncccc1-c1cn(Cc2nnc(-c3ccccc3F)[nH]2)c2ncnc(N)c12 [Example 253, 7-{[5-(2-Fluorophenyl)-4H-1,2,4-triazol-3-yl]methyl}-5-(2-methoxypyridin-3-yl)-7H-pyrrolo[2,3-d]pyrimidin-4-amine] | 1340 | 719
27 | CC(C)n1cc(Cn2cc(-c3ccc(Cl)cc3)c3c(N)ncnc32)cn1 [Example 254, 5-(4-Chlorophenyl)-7-{[1-(propan-2-yl)-1H-pyrazol-4-yl]methyl}-7H-pyrrolo[2,3-d]pyrimidin-4-amine] | 140 | 422
28 | CC(c1cn(CC2CCC2)nn1)n1cc(-c2ccc(Cl)cc2)c2c(N)ncnc21 (centres unmarked) [Example 255, 5-(4-Chlorophenyl)-7-{1-[1-(cyclobutylmethyl)-1H-1,2,3-triazol-4-yl]ethyl}-7H-pyrrolo[2,3-d]pyrimidin-4-amine] | 64.7 | 259
